Experiments:
[1] = system: leukotriene-induced vascular permeability; experiment: Inhibition of leukotriene (LTD4)-induced vascular permeability by topical test compound, guinea pigs; type: in vivo, male guinea pigs (Hartley strain); conditions: for % Inhibition (± S.E.M.): guinea pig, topical 4 hours prior to LTD4 injection
Procedure: (§1) The test compound was administered to the same number of animals as before by applying one drop (50 microliters) directly on the skin surface of a 10% by weight solution of the test compound in dimethylsulfoxide (DMSO). This amounted to 5 mg of test compound per site of application. […] Evans blue dye (0.5% in saline) was then injected intravenously into each animal, using the same procedure describd for Part (a), above. After thirty minutes the animals were sacrificed, the dorsal skins were removed, and the extent of dye migration was measured as above. The effectiveness of the test compound was calculated as the Percent (%) Inhibition of Leukotriene-Induced Permeability, as follows: [formula] where MWS=mean wheal size.

[2] = system: leukotriene-induced vascular permeability; experiment: Inhibition of leukotriene (LTD4)-induced vascular permeability by topical test compound, rats; type: in vivo, male rats (Sprague-Dawley strain); conditions: for % Inhibition (± S.E.M.): rat, topical 4 hours prior to LTD4 injection
Procedure: as §1

[3] = system: arachidonic acid-induced ear edema; experiment: Mouse ear edema test (in vivo), arachidonic acid-induced; parameters: species or system CD-1 male mice; conditions: for % Inhibition (± S.E.M.): eight mice
Source text: Dermatol. 80: 48 (1983), and Humes, Opas and Bonney, "Arachidonic Acid Metabolites in Mouse Ear Edema". Advances in Inflammation Research, 11: 57 (1986).
CD-1 male mice weighing 15 to 25 g were employed, and they were designated as follows: (1) Control Group, in which no arachidonic acid or test compound were to be applied, (2) Arachidonic Acid-Treated Group, in which no test compound was to be applied, and (3) Treated Group, in which the test compound was to be applied first, followed by the application of arachidonic acid. The test compound was again racemic-6-acetyl-7-[5-(4-acetyl-3-hydroxy-2-propylphenoxy)pentyloxy]-3,4-dihydro-2H-1-benzopyran-2-carboxylic acid.
In the case of the Group (3) animals, the test compound, dissolved in acetone, was applied to the dorsal surface of the right ear of the mouse with a 25-microliter pipettor, with the dose of the test compound being varied as shown in Tables 3 and 4. After 0.5 hour in some cases and 4 hours in others, the arachidonic acid was topically applied in the same manner as above to the pretreated ear areas. In each case of arachidonic acid application, an amount of 0.5 mg dissolved in 25 microliters of acetone was used. Application was made topically to the dorsal surface of the right ear with a 25-microliter pipettor. After one hour, the mice were sacrificed by carbon dioxide inhalation. A 6 mm-diameter standard biopsy punch was used to obtain a uniform tissue sample from the ear of each mouse so treated, and the tissue samples were weighed to the nearest 0.1 mg. The percent inhibition of ear edema formation was calculated as follows: [formula]

CCCc1c(OCCCCCOc2cc3c(cc2C(C)=O)CCC(C(=O)O)O3)ccc(C(C)=O)c1O (racemic) [test compound, 6-acetyl-7-[5-(4-acetyl-3-hydroxy-2-propylphenoxy)pentyloxy]-3,4-dihydro-2H-1-benzopyran-2-carboxylic acid]
% Inhibition (± S.E.M.) ([1]; 5.0% in DMSO): 11 ± 3% | % Inhibition (± S.E.M.) ([1]; 10.0% in DMSO): 33 ± 3% | % Inhibition (± S.E.M.) ([1]; 15.0% in DMSO): 43 ± 4% | % Inhibition (± S.E.M.) ([1]; 25.0% in DMSO): 49 ± 4% | inhibition of leukotriene-induced vascular permeability ([1]; guinea pigs, 5 mg per site (10% in DMSO) topical, time variation): inhibited leukotriene-induced vascular permeability | time of peak activity (inhibition of leukotriene-induced vascular permeability) ([1]; guinea pigs, 5 mg per site (10% in DMSO) topical, LTD4 0.4 microgram per site): 2 to 4 h | inhibition of leukotriene-induced vascular permeability increase, variation of concentration ([1]; guinea pigs, topical 4 hours prior to leukotriene injection): inhibited the leukotriene-induced vascular permeability increase in a dose-related manner | % Inhibition (± S.E.M.) ([2]; 2.5% in DMSO): 28 ± 4% | % Inhibition (± S.E.M.) ([2]; 5.0% in DMSO): 50 ± 6% | % Inhibition (± S.E.M.) ([2]; 10.0% in DMSO): 59 ± 6% | % Inhibition (± S.E.M.) ([2]; 25.0% in DMSO): 67 ± 5% | time of peak activity (inhibition of leukotriene-induced vascular permeability) ([2]; rats, relative to guinea pigs (2-4 hours), 5 mg per site (10% in DMSO) topical, LTD4 0.4 microgram per site): somewhat later | inhibition of leukotriene-induced vascular permeability ([2]; rats, 5 mg per site (10% in DMSO) topical, time variation): inhibited leukotriene-induced vascular permeability | inhibition of leukotriene-induced vascular permeability increase, variation of concentration ([2]; rats, topical 4 hours prior to leukotriene injection): inhibited the leukotriene-induced vascular permeability increase in a dose-related manner | % Inhibition (± S.E.M.) ([3]; 0.5 Hour Pretreatment, 0.1 mg applied topically in 25 μl acetone): 19 ± 10% | % Inhibition (± S.E.M.) ([3]; 0.5 Hour Pretreatment, 0.2 mg applied topically in 25 μl acetone): 21 ± 12% | % Inhibition (± S.E.M.) ([3]; 0.5 Hour Pretreatment, 0.5 mg applied topically in 25 μl acetone): 42 ± 12% | % Inhibition (± S.E.M.) ([3]; 0.5 Hour Pretreatment, 1.0 mg applied topically in 25 μl acetone): 63 ± 4% | % Inhibition (± S.E.M.) ([3]; 0.5 Hour Pretreatment, 2.0 mg applied topically in 25 μl acetone): 65 ± 1% | % Inhibition (± S.E.M.) ([3]; 4 Hour Pretreatment, 0.1 mg applied topically in 25 μl acetone): 26 ± 9% | % Inhibition (± S.E.M.) ([3]; 4 Hour Pretreatment, 0.2 mg applied topically in 25 μl acetone): 31 ± 12% | % Inhibition (± S.E.M.) ([3]; 4 Hour Pretreatment, 0.5 mg applied topically in 25 μl acetone): 28 ± 9% | % Inhibition (± S.E.M.) ([3]; 4 Hour Pretreatment, 1.0 mg applied topically in 25 μl acetone): 37 ± 7% | % Inhibition (± S.E.M.) ([3]; 4 Hour Pretreatment, 2.0 mg applied topically in 25 μl acetone): 68 ± 7% | inhibition of edema ([3]; amounts up to 2 mg, both 0.5 and 4 hours prior to arachidonic acid application): significant inhibition of edema

Source: patent publication US4885309A, “Therapeutic treatment of leukotriene-mediated dermal inflammation by topical administration of 3,4-dihydro-2H-1-benzopyran derivatives” (Hoffmann-La Roche Inc., priority 1986, dated 1989)
